Measured values taken from paper PMC6344527, “Toxicity and possible mechanisms of action of honokiol from Magnolia denudata seeds against four mosquito species” (Scientific Reports, 2019).
Converted amounts (≈) assume the structure as drawn.

Test system: third-instar larvae of insecticide-susceptible Aedes albopictus
Test: contact mortality bioassay, 24 h exposure
Type: in vivo

SMILES: C=CCc1ccc(O)c(-c2ccc(O)c(CC=C)c2)c1 [Honokiol, 2-(4-hydroxy-3-prop-2-enyl-phenyl)-4-prop-2-enyl-phenol]
- LC50 (Aedes albopictus, Table 4, 24 h exposure, read-out: LC50 (mg/L) (95% CI)): 6.13 mg/L (≈ 23 µM)
- LC90 (mg/L) (95% CI) (Table 4, 24 h exposure): 16.52 (13.74–21.90) mg/L
- times less toxic than temephos (from 24 h LC50 values): 464 times
- Slope ± SE (probit slope, Table 4, 24 h exposure): 2.9 ± 0.52
